Measured values taken from patent publication US20190119282A1, “IMIDAZOPYRIDAZINES USEFUL AS INHIBITORS OF THE PAR-2 SIGNALING PATHWAY” (Vertex Pharmaceuticals Incorporated, priority 2013, published 2019).
pIC50: −log10 of the molar value.

Legend:
[1] = tested on: Thrombin-stimulated Ca2+ response in HT-29 cells; assay: Ca FLIPR TETRA assay, ANTAGONIST mode, stimulation with 1 U/mL Thrombin; type: cell-based, human; settings: Homo sapiens, HT-29 cells, stimulation with 1 U/mL Thrombin
In short: (§1)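 Antagonist-mode FLIPR Tetra Ca2+ readout: after 30 min r.t. compound pre-incubation, HT-29 cells are challenged with trypsin (3.1 U/mL final), SLIGKV (8 μM), thrombin (1 U/mL) or UTP (0.6 μM). Cells were plated overnight in 1% FBS medium and dye-loaded with Calcium 5; an initial read checks compound agonism.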

[2] = tested on: UTP-stimulated Ca2+ response in HT-29 cells; assay: Ca FLIPR TETRA assay, ANTAGONIST mode, stimulation with 0.6 μM UTP; type: cell-based, human; settings: Homo sapiens, HT-29 cells, stimulation with 0.6 μM UTP
In short: as §1

[3] = biological target: T1, PAR2 (HT-29 cells, trypsin activation) (Homo sapiens, UniProt P55085); assay: Ca FLIPR TETRA assay, ANTAGONIST mode, stimulation with 3.1 U/mL trypsin; type: cell-based; settings: HT-29 cells, stimulation with 3.1 U/mL trypsin
T1 construct: host or cells: HT-29 cells
T1 sequence (P55085 26-397): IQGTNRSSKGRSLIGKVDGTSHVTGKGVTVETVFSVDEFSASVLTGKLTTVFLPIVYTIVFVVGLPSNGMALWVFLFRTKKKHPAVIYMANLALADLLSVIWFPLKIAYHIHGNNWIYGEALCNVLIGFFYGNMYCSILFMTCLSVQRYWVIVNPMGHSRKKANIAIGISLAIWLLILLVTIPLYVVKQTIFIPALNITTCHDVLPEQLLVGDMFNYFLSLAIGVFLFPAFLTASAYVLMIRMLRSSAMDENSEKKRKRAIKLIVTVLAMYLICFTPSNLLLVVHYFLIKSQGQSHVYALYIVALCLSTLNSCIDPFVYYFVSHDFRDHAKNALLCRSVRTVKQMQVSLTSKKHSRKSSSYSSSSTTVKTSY
In short: as §1

[4] = biological target: T2, PAR2 (HT-29 cells, SLIGKV activation) (Homo sapiens, UniProt P55085); assay: Ca FLIPR TETRA assay, ANTAGONIST mode, stimulation with 8 μM SLIGKV; type: cell-based; settings: HT-29 cells, stimulation with 8 μM SLIGKV
T2 construct: host or cells: HT-29 cells
T2 sequence (P55085 26-397): T1 sequence (P55085 26-397)
In short: as §1

Row | pIC50 ([1]; antagonist mode) | pIC50 ([2]; antagonist mode) | pIC50 ([3]; antagonist mode) | pIC50 ([4]; antagonist mode) | pIC50 [1] | pIC50 [2] | pIC50 [3] | pIC50 [4] | Structure (SMILES)
1 | < 6.00 | < 6.00 | 8.80 | 8.89 |  |  |  |  | CC(C)c1cc(-c2ccc(C(F)(F)F)cc2)nn2cc(C(=O)N3CCN(C(=O)C4CC(C)(O)C4)CC3(C)C)nc12 (stereo not drawn) [Compound I-371]
2 | < 6.00 | < 6.00 | 7.47 | 7.55 |  |  |  |  | CC(C)c1cc(-c2ccc(F)cc2)nn2cc(C(=O)N3CCN(C(=O)c4ccncc4)CC3(C)C)nc12 [Compound I-308]
3 | < 6.00 | < 6.00 | 7.78 | 8.01 |  |  |  |  | CC(C)c1cc(-c2ccc(F)cc2)nn2cc(C(=O)N3CCN(c4nn[nH]n4)C(=O)C3(C)C)nc12 [Compound I-275]
4 | < 6.00 | < 6.00 | 8.55 | 8.82 |  |  |  |  | CC(C)c1cc(-c2ccc(F)cc2)nn2cc(C(=O)N3CCN(C(=O)c4ccon4)CC3(C)C)nc12 [Compound I-321]
5 | < 6.00 | 6.15 | 9.52 | 10.00 |  |  |  |  | Cc1nc(C(=O)N2CCN(C(=O)c3cn4nc(-c5ccc(Cl)c(F)c5)cc(C(C)(C)C)c4n3)C(C)(C)C2)n[nH]1 [Compound I-451]
6 | < 6.00 | < 6.00 | 8.72 | 8.72 |  |  |  |  | Cc1n[nH]c(C(=O)N2CCN(C(=O)c3cn4nc(-c5ccc(C)c(F)c5)cc(C(C)C)c4n3)C(C)(C)C2)n1 [Compound I-339]
7 | < 6.00 | < 6.00 | 8.89 | 9.00 |  |  |  |  | Cc1cc(C(=O)N2CCN(C(=O)c3cn4nc(-c5ccc(C(F)(F)F)cc5)cc(C(C)C)c4n3)C(C)(C)C2)[nH]n1 [Compound I-390]
8 | < 6.00 | < 6.00 | 6.96 | 7.20 |  |  |  |  | CC(C)(C)c1cc(C2CCC(F)(F)CC2)nn2cc(C(=O)N3CCN(C(=O)[C@H]4C[C@H](C(=O)O)C4)CC3(C)C)nc12 [Compound I-515]
9 | < 6.00 | < 6.00 | 10.00 | 10.10 |  |  |  |  | CC1(C(=O)O)CCC(C(=O)N2CCN(C(=O)c3cn4nc(-c5ccc(Cl)cc5)cc(C(C)(C)C)c4n3)C(C)(C)C2)CC1 (stereo not drawn) [Compound I-534]

The next lines start with the molecule.

Row | Structure (SMILES) | pIC50 ([1]; antagonist mode) | pIC50 ([2]; antagonist mode) | pIC50 ([3]; antagonist mode) | pIC50 ([4]; antagonist mode) | pIC50 [1] | pIC50 [2] | pIC50 [3] | pIC50 [4]
10 | CC(C)c1cc(-c2ccc(F)cc2)nn2cc(C(=O)N3CCN(C(=O)c4ncc[nH]4)CC3(C)C)nc12 [Compound I-238] | < 6.00 | < 6.00 | 8.07 | 8.60 |  |  |  | 
11 | CC(C)c1cc(-c2cc(F)cc(F)c2)nn2cc(C(=O)N3CCN(C(=O)C(C)(C)O)CC3(C)C)nc12 [Compound I-224] | < 6.00 | < 6.00 | 6.79 | 6.96 |  |  |  | 
12 | CC(C)(C)c1cc(-c2ccc(F)cc2)nn2cc(C(=O)N3CCN(CC#N)C(=O)C3(C)C)nc12 [Compound I-267] | 6.25 | < 6.00 | 8.70 | 8.85 |  |  |  | 
13 | C[C@H]1CN(C(=O)c2cn3nc(-c4ccc(F)cc4)cc(C(F)(F)F)c3n2)CCN1C(=O)OCc1cccnc1 [Compound I-12, 3-Pyridylmethyl (2S)-4-[6-(4-fluorophenyl)-8-(trifluoromethyl)-imidazo-[1,2-b]pyridazine-2-carbonyl]-2-methyl-piperazine-1-carboxylate] |  |  |  |  | 5.11 | 5.04 | 6.31 | 7.08
14 | CC(C)c1cc(C2CCOCC2)nn2cc(C(=O)N3CCN(C(=O)C4(O)CCC4)CC3(C)C)nc12 [Compound I-45, [4-(1-hydroxycyclobutanecarbonyl)-2,2-dimethyl-piperazin-1-yl]-(8-isopropyl-6-tetrahydropyran-4-yl-imidazo[1,2-b]pyridazin-2-yl)methanone] |  |  |  |  | < 4.30 | < 4.30 | < 4.30 | 4.70
15 | CC(C)c1cc(-c2ccc(F)cc2)nn2cc(C(=O)N3CCN(C(=O)C(O)c4cccnc4)[C@@H](C)C3)nc12 (stereo partly drawn) [Compound I-101] |  |  |  |  | 4.57 | 4.52 | 5.85 | 8.15
